Test results reported in ChEMBL document CHEMBL1201862, “PubChem BioAssay data set” (2004).
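Dose response: 5 concentrations. Exposure: 48 h. Format: 96-well plates. Endpoint: linear interpolation; highest concentration if not reached. Abbreviation: GI50, concentration required for 50% inhibition of growth.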 The source made the active and inactive calls. No stated cut-off is given here; in the data, active = GI50 up to about 1.1 µM and inactive = higher.

How the values were obtained:
Experiment in all cases: DTP human tumour cell line panel, 48 h
786-0 = test system: 786-0
A498 = test system: A498
A549 = test system: A549
ACHN = test system: ACHN
BT-549 = test system: BT-549
CAKI-1 = test system: CAKI-1
CCRF-CEM = test system: CCRF-CEM
COLO 205 = test system: COLO 205
DU-145 = test system: DU-145
EKVX = test system: EKVX
HCC 2998 = test system: HCC 2998
HCT-116 = test system: HCT-116
HCT-15 = test system: HCT-15
HL-60 = test system: HL-60
HOP-62 = test system: HOP-62
HOP-92 = test system: HOP-92
HT-29 = test system: HT-29
Hs-578T = test system: Hs-578T
IGROV-1 = test system: IGROV-1
K562 = test system: K562
KM12 = test system: KM12
LOX IMVI = test system: LOX IMVI
M14 = test system: M14
MCF7 = test system: MCF7
MDA-MB-231 = test system: MDA-MB-231
MDA-MB-435 = test system: MDA-MB-435
MDA-N = test system: MDA-N
MOLT-4 = test system: MOLT-4
Malme-3M = test system: Malme-3M
NCI-H226 = test system: NCI-H226
NCI-H23 = test system: NCI-H23
NCI-H460 = test system: NCI-H460
NCI-H522 = test system: NCI-H522
NCI/ADR-RES = test system: NCI/ADR-RES
OVCAR-3 = test system: OVCAR-3
OVCAR-4 = test system: OVCAR-4
OVCAR-5 = test system: OVCAR-5
OVCAR-8 = test system: OVCAR-8
PC-3 = test system: PC-3
RPMI-8226 = test system: RPMI-8226
RXF 393 = test system: RXF 393
SF-268 = test system: SF-268
SF-295 = test system: SF-295
SF-539 = test system: SF-539
SK-MEL-28 = test system: SK-MEL-28
SK-MEL-2 = test system: SK-MEL-2
SK-MEL-5 = test system: SK-MEL-5
SK-OV-3 = test system: SK-OV-3
SN12C = test system: SN12C
SNB-19 = test system: SNB-19
SNB-75 = test system: SNB-75
SW-620 = test system: SW-620
TK-10 = test system: TK-10
U-251 = test system: U-251
UACC-257 = test system: UACC-257
UACC-62 = test system: UACC-62
UO-31 = test system: UO-31
SR = test system: SR

O=C(c1ccccc1F)c1c(NCc2ccccc2)c(=O)c1=O
GI50 (786-0): > 100 µM (inactive)
GI50 (A498): > 100 µM (inactive)
GI50 (A549): > 100 µM (inactive)
GI50 (ACHN): > 100 µM (inactive)
GI50 (BT-549): > 100 µM (inactive)
GI50 (CAKI-1): > 100 µM (inactive)
GI50 (CCRF-CEM): > 100 µM (inactive)
GI50 (COLO 205): > 100 µM (inactive)
GI50 (DU-145): > 100 µM (inactive)
GI50 (EKVX): > 100 µM (inactive)
GI50 (HCC 2998): > 100 µM (inactive)
GI50 (HCT-116): > 100 µM (inactive)
GI50 (HCT-15): > 100 µM
GI50 (HL-60): > 100 µM (inactive)
GI50 (HOP-62): > 100 µM (inactive)
GI50 (HOP-92): > 100 µM (inactive)
GI50 (HT-29): > 100 µM (inactive)
GI50 (Hs-578T): > 100 µM (inactive)
GI50 (IGROV-1): 55.7 µM (inactive)
GI50 (K562): > 100 µM (inactive)
GI50 (KM12): > 100 µM (inactive)
GI50 (LOX IMVI): > 100 µM (inactive)
GI50 (M14): > 100 µM (inactive)
GI50 (MCF7): > 100 µM (inactive)
GI50 (MDA-MB-231): > 100 µM (inactive)
GI50 (MDA-MB-435): > 100 µM (inactive)
GI50 (MDA-N): > 100 µM (inactive)
GI50 (MOLT-4): > 100 µM (inactive)
GI50 (Malme-3M): > 100 µM (inactive)
GI50 (NCI-H226): > 100 µM (inactive)
GI50 (NCI-H23): > 100 µM (inactive)
GI50 (NCI-H460): > 100 µM (inactive)
GI50 (NCI-H522): 19.9 µM (inactive)
GI50 (NCI/ADR-RES): > 100 µM (inactive)
GI50 (OVCAR-3): > 100 µM (inactive)
GI50 (OVCAR-4): > 100 µM (inactive)
GI50 (OVCAR-5): > 100 µM (inactive)
GI50 (OVCAR-8): > 100 µM (inactive)
GI50 (PC-3): > 100 µM (inactive)
GI50 (RPMI-8226): > 100 µM (inactive)
GI50 (RXF 393): > 100 µM (inactive)
GI50 (SF-268): > 100 µM (inactive)
GI50 (SF-295): > 100 µM (inactive)
GI50 (SF-539): > 100 µM (inactive)
GI50 (SK-MEL-28): > 100 µM (inactive)
GI50 (SK-MEL-2): > 100 µM (inactive)
GI50 (SK-MEL-5): > 100 µM (inactive)
GI50 (SK-OV-3): > 100 µM (inactive)
GI50 (SN12C): > 100 µM (inactive)
GI50 (SNB-19): > 100 µM (inactive)
GI50 (SNB-75): > 100 µM (inactive)
GI50 (SW-620): > 100 µM (inactive)
GI50 (TK-10): > 100 µM (inactive)
GI50 (U-251): > 100 µM (inactive)
GI50 (UACC-257): > 100 µM (inactive)
GI50 (UACC-62): > 100 µM (inactive)
GI50 (UO-31): > 100 µM (inactive)

CCC(=O)O[C@H]1CC[C@H]2[C@@H]3CCC4=CC(=O)C=C[C@]4(O)[C@H]3CC[C@]12C
GI50 (786-0): 33.7 µM (inactive)
GI50 (A498): > 100 µM (inactive)
GI50 (A549): 16.1 µM (inactive)
GI50 (ACHN): 55.7 µM (inactive)
GI50 (BT-549): 20.5 µM (inactive)
GI50 (CAKI-1): 24.3 µM (inactive)
GI50 (CCRF-CEM): 4.09 µM (inactive)
GI50 (COLO 205): 37.8 µM (inactive)
GI50 (DU-145): 22.8 µM (inactive)
GI50 (EKVX): 25.9 µM (inactive)
GI50 (HCT-116): 21.9 µM (inactive)
GI50 (HCT-15): 15 µM
GI50 (HL-60): 11.9 µM (inactive)
GI50 (HOP-62): 29.4 µM (inactive)
GI50 (HOP-92): 31.2 µM (inactive)
GI50 (HT-29): 19.1 µM (inactive)
GI50 (Hs-578T): 39.5 µM (inactive)
GI50 (IGROV-1): 22.4 µM (inactive)
GI50 (K562): 3.39 µM (inactive)
GI50 (KM12): 18.5 µM (inactive)
GI50 (LOX IMVI): 16.7 µM (inactive)
GI50 (M14): 22.5 µM (inactive)
GI50 (MCF7): 23.9 µM (inactive)
GI50 (MDA-MB-231): 22.7 µM (inactive)
GI50 (MDA-MB-435): 3.11 µM (inactive)
GI50 (MDA-N): 2.95 µM (inactive)
GI50 (MOLT-4): 8.87 µM (inactive)
GI50 (Malme-3M): 48 µM (inactive)
GI50 (NCI-H226): > 100 µM (inactive)
GI50 (NCI-H23): 22 µM (inactive)
GI50 (NCI-H460): 16.3 µM (inactive)
GI50 (NCI-H522): 16.7 µM (inactive)
GI50 (NCI/ADR-RES): 37 µM (inactive)
GI50 (OVCAR-3): 19.8 µM (inactive)
GI50 (OVCAR-4): 28.3 µM (inactive)
GI50 (OVCAR-5): 87.5 µM (inactive)
GI50 (OVCAR-8): 23 µM (inactive)
GI50 (PC-3): 23.8 µM (inactive)
GI50 (RPMI-8226): 8.55 µM (inactive)
GI50 (RXF 393): 24.5 µM (inactive)
GI50 (SF-268): 31 µM (inactive)
GI50 (SF-295): 26.1 µM (inactive)
GI50 (SF-539): 29.6 µM (inactive)
GI50 (SK-MEL-28): 67.6 µM (inactive)
GI50 (SK-MEL-2): 15.9 µM (inactive)
GI50 (SK-MEL-5): 5.22 µM (inactive)
GI50 (SK-OV-3): 82.6 µM (inactive)
GI50 (SN12C): 41.9 µM (inactive)
GI50 (SNB-19): 28.4 µM (inactive)
GI50 (SR): 2.67 µM (inactive)
GI50 (SW-620): 17.9 µM (inactive)
GI50 (TK-10): 57.4 µM (inactive)
GI50 (U-251): 20.5 µM (inactive)
GI50 (UACC-257): 3.72 µM (inactive)
GI50 (UACC-62): 15.4 µM (inactive)
GI50 (UO-31): 64.1 µM (inactive)

Cc1nc(N)nc(S)c1CCC(=O)O
GI50 (786-0): > 100 µM (inactive)
GI50 (A498): > 100 µM (inactive)
GI50 (A549): > 100 µM (inactive)
GI50 (ACHN): > 100 µM (inactive)
GI50 (BT-549): > 100 µM (inactive)
GI50 (CAKI-1): > 100 µM (inactive)
GI50 (CCRF-CEM): > 100 µM (inactive)
GI50 (COLO 205): > 100 µM (inactive)
GI50 (DU-145): > 100 µM (inactive)
GI50 (EKVX): > 100 µM (inactive)
GI50 (HCC 2998): > 100 µM (inactive)
GI50 (HCT-116): > 100 µM (inactive)
GI50 (HCT-15): > 100 µM
GI50 (HL-60): > 100 µM (inactive)
GI50 (HOP-62): > 100 µM (inactive)
GI50 (HOP-92): > 100 µM (inactive)
GI50 (HT-29): > 100 µM (inactive)
GI50 (Hs-578T): > 100 µM (inactive)
GI50 (IGROV-1): > 100 µM (inactive)
GI50 (K562): > 100 µM (inactive)
GI50 (KM12): > 100 µM (inactive)
GI50 (LOX IMVI): > 100 µM (inactive)
GI50 (M14): > 100 µM (inactive)
GI50 (MCF7): > 100 µM (inactive)
GI50 (MDA-MB-231): > 100 µM (inactive)
GI50 (MDA-MB-435): > 100 µM (inactive)
GI50 (MDA-N): > 100 µM (inactive)
GI50 (MOLT-4): > 100 µM (inactive)
GI50 (Malme-3M): > 100 µM (inactive)
GI50 (NCI-H226): > 100 µM (inactive)
GI50 (NCI-H23): > 100 µM (inactive)
GI50 (NCI-H460): > 100 µM (inactive)
GI50 (NCI-H522): > 100 µM (inactive)
GI50 (NCI/ADR-RES): > 100 µM (inactive)
GI50 (OVCAR-3): > 100 µM (inactive)
GI50 (OVCAR-4): > 100 µM (inactive)
GI50 (OVCAR-5): > 100 µM (inactive)
GI50 (OVCAR-8): > 100 µM (inactive)
GI50 (PC-3): > 100 µM (inactive)
GI50 (RPMI-8226): > 100 µM (inactive)
GI50 (RXF 393): > 100 µM (inactive)
GI50 (SF-268): > 100 µM (inactive)
GI50 (SF-295): > 100 µM (inactive)
GI50 (SF-539): > 100 µM (inactive)
GI50 (SK-MEL-28): > 100 µM (inactive)
GI50 (SK-MEL-2): > 100 µM (inactive)
GI50 (SK-MEL-5): > 100 µM (inactive)
GI50 (SK-OV-3): > 100 µM (inactive)
GI50 (SN12C): > 100 µM (inactive)
GI50 (SNB-19): > 100 µM (inactive)
GI50 (SR): > 100 µM (inactive)
GI50 (SW-620): > 100 µM (inactive)
GI50 (TK-10): > 100 µM (inactive)
GI50 (U-251): > 100 µM (inactive)
GI50 (UACC-257): > 100 µM (inactive)
GI50 (UACC-62): > 100 µM (inactive)
GI50 (UO-31): > 100 µM (inactive)
